# Experimental data reported in patent publication US11192849B2, “Compounds, compositions, and methods for modulating ferroptosis and treating excitotoxic disorders” (THE TRUSTEES OF COLUMBIA UNIVERSITY IN THE CITY OF NEW YORK, priority 2013, dated 2021).
# Non-standard residues stand in square brackets, D forms with d. Residues, ends and D or L forms follow the SMILES beside them. *: point of attachment. Nle = CCCC[C@H](N)C(=O)O; Cbz = O=C(OCc1ccccc1)*; CH2F = FC*
# How the values were obtained:
# [1] = system: HT-1080, BJeLR and Calu-1 cells; test: Modulatory profiling of cell death inhibitors against erastin; format: cell-based, human; conditions: erastin 10 μM, 24 hours; 10-point, 4-fold dilution series
# Description: The day before the experiment, cells were seeded in black, 384-well clear bottom plates (Corning) at a density of 1,000 cells/well using a Beckman Biomek FX Workstation. All compounds (except 3-methyladenine and chloroquine, which were diluted in water) were diluted in DMSO at 250 times the final highest test concentration, and aliquoted across a 384-well plate (Greiner, Monroe, N.C.). A ten-point, 4-fold dilution series of each inhibitor in DMSO was made using a multichannel pipette. Replicates of this mother plate were stored at −20° C. […] Medium was removed from cells and replaced with 36 μL medium containing DMSO (0.1%) or erastin (10 μM final concentration). Using the Biomek FX, 4 μL were then transferred from each inhibitor daughter plate into the DMSO-containing or erastin-containing assay plates. For 3-methyladenine and chloroquine, inhibitors were prepared fresh in media at 10-fold the final concentration in the presence of DMSO or 10 μM erastin. These solutions were manually pipetted onto cells in 384-well format. Assay plates were incubated at 37° C. for 24 hours. Viability was assessed using Alamar Blue.
# The modulatory effect (Me) for drug-drug interactions was computed as follows. First, plate-based background correction was performed using Alamar Blue values from empty (cell-free) wells included on each plate. Next, within each experiment, 100% viability is determined as the average Alamar Blue score for cells treated with modulator=DMSO and lethal=DMSO, and all Alamar Blue values were scaled from 0 to 1 with the DMSO×DMSO condition=1. The individual effects of each modulator and lethal (e.g. in the presence of DMSO) at all tested doses were then ascertained. […] Next, BExp was compared to the actual observed viability. […] By default, Me in DMSO-treated cells is equal to 0. […] Me values for each inhibitor-lethal drug combination were hierarchically clustered and plotted as a heatmap using the heatmaps.2 function of the gplots library in R.
# HT-1080 cells [2] = test: Inhibition of erastin (10 μM)-induced death in HT-1080 cells (Alamar Blue); format: cell-based, human; conditions: for protection when added after erastin: added up to 6 hours after erastin
# Description: Cell viability was typically assessed in 384-well format by Alamar Blue (Invitrogen) fluorescence (ex/em 530/590) measured on a Victor3 platereader (Perkin Elmer, Waltham, Mass.). In some experiments, Trypan Blue dye exclusion counting was performed using an automated cell counter (ViCell, Beckman-Coulter Inc., Brea, Calif.). Cell viability in test conditions is reported as a percentage relative to the negative control treatment.
# The ability of various compounds disclosed herein to inhibit death in erastin (10 μM)-treated HT-1080 cells were tested. Cell viability was assessed by Alamar Blue. EC50 values (nM) were computed from dose response curves.
# HT-1080 cells are cultured in DMEM containing 10% fetal bovine serum, 1% supplemented non-essential amino acids and 1% pen/strep mixture (Gibco) and maintained in a humidified environment at 37° C. with 5% CO2 in a tissue culture incubator. 1,000 HT-1080 cells are seeded per well in duplicate 384-well plates (Corning) using a BioMek FX liquid handling robot (Beckman Coulter). The next day, the medium is replaced with 36 μL of medium containing 10 μM erastin with 4 μL of medium containing a dilution series (previously prepared) of DMSO, Fer-1 (positive control) or Fer-1 analogs. 24 hours later, 10 μL Alamar Blue (Invitrogen) cell viability solution is added to the growth media to a final concentration of 10%. Cells are incubated a further 6 hours and then the Alamar Blue fluorescence intensity recorded using a Victor 3 platereader (PerkinElmer)(ex/em 530/590). All experiments are performed at least twice and the background (no cells)-subtracted Alamar Blue values for each combination are averaged between replicates.
# HT-1080 cells [3] = test: Cytosolic and lipid ROS production (H2DCFDA, C11-BODIPY flow cytometry) in HT-1080 cells; format: cell-based, human; conditions: erastin (10 μM)
# Description: The day before the experiment, 200,000 cells/well were seeded in 6-well dishes (Corning Inc., Corning, N.Y.). The day of the experiment, cells were treated with test compounds for the indicated times, then harvested by trypsinization, resuspended in 500 μL Hanks Balanced Salt Solution (HBSS, Gibco, Invitrogen Corp., Carlsbad, Calif.) containing either H2DCFDA (25 μM), C11-BODIPY(581/591) (2 μM) or MitoSOX (5 μM) (all from Molecular Probes, Invitrogen) and incubated for 10 minutes at 37° C. in a tissue culture incubator. Cells were then resuspended in 500 μL of fresh HBSS, strained through a […] cell strainer (BD Falcon, BD Biosciences, San Jose, Calif.), and analyzed using a flow cytometer (FACSCalibur or Accuri C6, BD Biosciences), which was equipped with 488-nm laser for excitation. Data was collected from the FL1 (H2DCFDA, C11-BODIPY) or FL2 channel (MitoSOX). A minimum of 10,000 cells were analyzed per condition.
# [4] = Metabolic stability in mouse liver microsomes; format: in vitro ADME; conditions: Compound Conc = 0.5 μM
# Description: Test compounds (0.5 μM) were incubated at 37° C. for up to 45 minutes in 50 mM of potassium phosphate buffer (pH 7.4) containing mouse liver microsomal protein (0.5 mg/mL) and an NADPH generating system (0.34 mg/mL β-nicotinamide adenine dinucleotide phosphate (NADP), 1.56 mg/mL glucose-6-phosphate, 1.2 units/mL glucose-6-phosphate dehydrogenase). At 0, 5, 15, 30, and 45 minute intervals, an aliquot was taken and quenched with acetonitrile (ACN) containing internal standard. No-cofactor controls at 45 minutes were prepared. Following completion of the experiment, the samples were analyzed by LC-MS/MS.
# The half-life (t1/2) was calculated using the following equation: t1/2=0.693/k Where, k is the elimination rate constant of test compounds obtained by fitting the data to the equation: C=initial×exp(−k×t) Intrinsic clearance (Clint) is calculated as liver clearance from the half-life using the following equation: […]
# 0.5 mg protein/mL incubation
# Ethoxycoumarin was used as a control.
# [5] = In vitro stability study in mouse plasma; format: in vitro ADME
# Description: The assay was conducted by incubating 1 μM of test compounds with Mouse Plasma (Strain […]) for a series of incubation times (0, 15, 30, 60, 120 minutes) at various temperatures (wet ice, room temperature, or 37° C.) with 5% CO2 and shaking (130 rpm). At each time point, the samples were quenched with 200 μL of stop solution containing an internal standard and kept on ice. The samples were analysed by LC-MS/MS.
smiles,measurement,setting,value
"CCCC[C@@H](C=O)NC(=O)[C@H](CC(C)C)NC(=O)[C@H](CC(C)C)NC(C)=O [ALLN, N-Acetyl-Leu-Leu-Nle-CHO] (Ac-Leu-Leu-[Nle]-aldehyde)",modulation of erastin-induced death,[1],not consistently modulated
"COC(=O)CC(NC(=O)C(C)NC(=O)C(NC(=O)OCc1ccccc1)C(C)C)C(=O)CF (stereo not drawn) [z-VAD-fmk, carbobenzyloxy-valyl-alanyl-aspartyl-[O-methyl]-fluoromethylketone] (Cbz-Val-Ala-Asp(OMe)-CH2F; configuration not given here)",modulation of erastin-induced death,[1],not consistently modulated
CO/C1=C\C(C)=C\[C@@H](C)[C@@H](O)[C@@H](C)C/C(C)=C/C=C/[C@H](OC)[C@@H]([C@@H](C)[C@@H](O)[C@H](C)[C@@]2(O)C[C@@H](O)[C@H](C)[C@@H](C(C)C)O2)OC1=O [bafilomycin A1],modulation of erastin-induced death,[1],not consistently modulated
CCN(CC)CCCC(C)Nc1ccnc2cc(Cl)ccc12 (stereo not shown) [chloroquine],modulation of erastin-induced death,[1],not consistently modulated
"Cc1c(C)c2c(c(C)c1O)CCC(C)(C(=O)O)O2 (stereo not shown) [trolox, 6-hydroxy-2,5,7,8-tetramethylchroman-2-carboxylic acid]",protection when added after erastin,HT-1080 cells [2],substantial protection from death
same,effect of inhibitor on erastin-induced ROS accumulation,HT-1080 cells [3],prevented the accumulation of H2DCFDA-sensitive ROS
same,modulation of erastin-induced death,[1],rescued from erastin-induced death
"N#CC(=C(N)Sc1ccccc1N)C(C#N)=C(N)Sc1ccccc1N [Compound U0126, 1,4-diamino-2,3-dicyano-1,4-bis (2-aminophenylthio)butadiene]",protection when added after erastin,HT-1080 cells [2],substantial protection from death
same,effect of inhibitor on erastin-induced ROS accumulation,HT-1080 cells [3],prevented the accumulation of H2DCFDA-sensitive ROS
same,modulation of erastin-induced death,[1],rescued from erastin-induced death
"C[C@@H]1C[C@@H]([C@H](O)CC2CC(=O)NC(=O)C2)C(=O)[C@@H](C)C1 [CHX, cycloheximide]",modulation of erastin-induced death,[1],to a weaker extent
Cn1cnc(N)c2ncnc1-2 [3-methyladenine],modulation of erastin-induced death,[1],not consistently modulated
"CCOC(=O)[C@H]1O[C@@H]1C(=O)N[C@@H](CC(C)C)C(=O)NCCC(C)C (relative stereo) [Compound E64d, (2S,3S)-trans-epoxysuccinyl-L-leucylamido-3-methylbutane ethyl ester]",modulation of erastin-induced death,[1],not consistently modulated
"CCOC(=O)c1ccc(NC23CC4CC(CC(C4)C2)C3)c(/N=C\c2cncnc2)c1 [SRS15-72, ethyl 4-(adamantylamino)-3-(pyrimidin-5-ylmethyleneamino)benzoate]",EC50,"HT-1080 cells [2]; Homo sapiens, HT-1080, Table 1 (Example 10), erastin (10 μM)-treated HT-1080 cells, read-out: EC50",288 nM
same,Elimination rate constant (k),[4]; Mouse,0.0045
same,Intrinsic Clearance (CLint) (mL/min/g liver),[4]; Mouse,0.47 mL/min/g liver
same,half-life at 0.5 μM,"[4]; mouse, liver microsomes, pH 7.4, Mouse, read-out: Half life (t½)",2.57 h
same,Peak Area Ratio,"[5]; Room Temperature, 0 min",2.0737
same,Percent Remaining,"[5]; Room Temperature, 0 min",100.0%
same,Peak Area Ratio,"[5]; Room Temperature, 15 min",1.1581
same,Percent Remaining,"[5]; Room Temperature, 15 min",55.8%
same,Peak Area Ratio,"[5]; Room Temperature, 30 min",0.5320
same,Percent Remaining,"[5]; Room Temperature, 30 min",25.7%
same,Peak Area Ratio,"[5]; Room Temperature, 60 min",0.2502
same,Percent Remaining,"[5]; Room Temperature, 60 min",12.1%
same,Peak Area Ratio,"[5]; Room Temperature, 120 min",0.0841
same,Percent Remaining,"[5]; Room Temperature, 120 min",4.1%
same,Peak Area Ratio,"[5]; Wet Ice, 0 min",2.6066
same,Percent Remaining,"[5]; Wet Ice, 0 min",100.0%
same,Peak Area Ratio,"[5]; Wet Ice, 15 min",2.0815
same,Percent Remaining,"[5]; Wet Ice, 15 min",79.9%
same,Peak Area Ratio,"[5]; Wet Ice, 30 min",1.6279
same,Percent Remaining,"[5]; Wet Ice, 30 min",62.5%
same,Peak Area Ratio,"[5]; Wet Ice, 60 min",1.4397
same,Percent Remaining,"[5]; Wet Ice, 60 min",55.2%
same,Peak Area Ratio,"[5]; Wet Ice, 120 min",1.2446
same,Percent Remaining,"[5]; Wet Ice, 120 min",47.7%
